In patent publication US12377107B2, “NT5C2 inhibitors for the treatment of chemotherapy-resistant acute lymphoblastic leukemia” (THE TRUSTEES OF COLUMBIA UNIVERSITY IN THE CITY OF NEW YORK, priority 2019, dated 2025):

How the values were obtained:
[1] = test system: NT5C2 R367Q mutant mouse lymphoblasts; assay: Cell viability of NT5C2 R367Q mutant mouse lymphoblasts in combination with 6-MP; type: cell-based; conditions: for synergy with 6-MP to decrease cell viability: combination with 6-mercaptopurine, dose-dependent
Text: Various embodiments relate to the synthesis and characterization of NT5C2 inhibitors, HTP47 and HTP48, for treatment of chemotherapy resistant T-ALL.
[drawing 5] • to decrease cell viability of NT5C2 R367Q mutant mouse lymphoblasts. As such, various embodiments may be used in combination with existing chemotherapies to treat T-ALL and relapsed T-ALL.
Various embodiments relate to ongoing in vitro and in vivo functional characterization and development of optimized inhibitors. […] Control experiment were performed for dose optimization of HTP47 and HTP48 in C2-2 NT5C2 WT mouse lymphoblasts. […] Synthesis reactions for HTP47 and HTP48 are also provided.

NT5C2 = NT5C2 (Homo sapiens, UniProt P49902, R367Q); assay: NT5C2 inhibition test (malachite green based assay detecting free inorganic phosphate); type: biochemical
[2] = Dissolution of compound for NT5C2 inhibition test; type: physicochemical

NT5C2, sequence (P49902 whole entry R367Q): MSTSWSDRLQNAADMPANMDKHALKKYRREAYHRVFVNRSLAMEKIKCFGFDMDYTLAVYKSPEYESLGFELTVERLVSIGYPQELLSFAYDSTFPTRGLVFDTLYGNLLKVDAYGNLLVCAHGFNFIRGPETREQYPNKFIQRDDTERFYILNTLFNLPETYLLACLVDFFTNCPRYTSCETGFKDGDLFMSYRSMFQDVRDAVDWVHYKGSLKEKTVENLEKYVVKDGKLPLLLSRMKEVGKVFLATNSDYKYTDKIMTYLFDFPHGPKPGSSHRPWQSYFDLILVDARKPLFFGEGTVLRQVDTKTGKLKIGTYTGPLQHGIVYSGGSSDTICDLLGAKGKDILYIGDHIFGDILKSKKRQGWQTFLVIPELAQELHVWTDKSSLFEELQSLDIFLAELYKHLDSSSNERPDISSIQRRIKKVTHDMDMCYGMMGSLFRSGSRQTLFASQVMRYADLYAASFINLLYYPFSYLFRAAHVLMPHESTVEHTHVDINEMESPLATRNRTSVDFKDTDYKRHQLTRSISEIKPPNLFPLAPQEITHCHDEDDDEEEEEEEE

Cc1nc2nc(C(=O)Nc3sc4c(c3C(N)=O)CCCC4)ccc2[nH]1 [HTP47]
potency of 6-MP in combination, comparison of HTP47 and HTP48 ([1]; combination with 6-MP): greater potency of 6-MP in combination with HTP47 compared to HTP48 | synergy with 6-MP to decrease cell viability [1]: act synergistically with 6-MP in a dose-dependent manner | NT5C2 inhibitory activity (NT5C2; assay format not given): have NT5C2 inhibitory activity | NT5C2 inhibitory activity (NT5C2; malachite green based assay): NT5C2 inhibitory activity

CNC1CCN(C(=O)c2c[nH]c(=O)c3ccccc23)CC1 [Formula 37]
NT5C2 inhibitory activity (NT5C2; assay format not given): no NT5C2 inhibition activity

NC(=O)c1c(NC(=O)c2ccc3[nH]cnc3c2)sc2c1CCC2 [HTP41]
NT5C2 inhibitory activity (NT5C2; assay format not given): have NT5C2 inhibitory activity

NC(=O)c1c(NC(=O)c2ccc3[nH]cnc3c2)sc2c1CCCC2 [HTP2]
NT5C2 inhibitory activity (NT5C2; assay format not given): have NT5C2 inhibitory activity | NT5C2 inhibitory activity (NT5C2; malachite green based assay): NT5C2 inhibitory activity

CCC1(CC)CCN(C(=O)c2c[nH]c(=O)c3ccccc23)CC1 [Formula 36]
NT5C2 inhibitory activity (NT5C2; assay format not given): no NT5C2 inhibition activity

Cn1cnc2cc(C(=O)Nc3sc4c(c3C(N)=O)CCCC4)ccc21 [HTP48]
synergy with 6-MP to decrease cell viability [1]: act synergistically with 6-MP in a dose-dependent manner | NT5C2 inhibitory activity (NT5C2; assay format not given): have NT5C2 inhibitory activity | NT5C2 inhibitory activity (NT5C2; malachite green based assay): NT5C2 inhibitory activity

CC1(CO)CCN(C(=O)c2c[nH]c(=O)c3ccccc23)CC1 [Formula 35]
NT5C2 inhibitory activity (NT5C2; assay format not given): no NT5C2 inhibition activity

N#Cc1c(NC(=O)c2ccc3[nH]cnc3c2)sc2c1CCCC2 [HTP22]
NT5C2 inhibitory activity (NT5C2; assay format not given): have NT5C2 inhibitory activity

CC(C)CCNC(=O)c1c[nH]c(=O)c2ccccc12 [Formula 38]
dissolution [2]: did not dissolve | NT5C2 inhibitory activity (NT5C2; assay format not given): no NT5C2 inhibition activity was observed

NCC1CCCN(C(=O)c2c[nH]c(=O)c3ccccc23)C1 (centres unmarked) [Formula 39]
NT5C2 inhibitory activity (NT5C2; assay format not given): no NT5C2 inhibition activity
